Experimental data published in US20080119515A1, “Heterocyclic Kinase Inhibitors: Methods of Use and Synthesis” (priority 2003, published 2008).

biological target: T1, ZAP-70 (Homo sapiens, UniProt P43403); experiment: DELFIA assay (ZAP-70 kinase, phosphorylation of biotinylated poly(glu,tyr)); format: biochemical; conditions: ZAP-70 DELFIA, class symbols; read-out: Activity (IC50 in vitro)
T1 sequence (P43403 1-619): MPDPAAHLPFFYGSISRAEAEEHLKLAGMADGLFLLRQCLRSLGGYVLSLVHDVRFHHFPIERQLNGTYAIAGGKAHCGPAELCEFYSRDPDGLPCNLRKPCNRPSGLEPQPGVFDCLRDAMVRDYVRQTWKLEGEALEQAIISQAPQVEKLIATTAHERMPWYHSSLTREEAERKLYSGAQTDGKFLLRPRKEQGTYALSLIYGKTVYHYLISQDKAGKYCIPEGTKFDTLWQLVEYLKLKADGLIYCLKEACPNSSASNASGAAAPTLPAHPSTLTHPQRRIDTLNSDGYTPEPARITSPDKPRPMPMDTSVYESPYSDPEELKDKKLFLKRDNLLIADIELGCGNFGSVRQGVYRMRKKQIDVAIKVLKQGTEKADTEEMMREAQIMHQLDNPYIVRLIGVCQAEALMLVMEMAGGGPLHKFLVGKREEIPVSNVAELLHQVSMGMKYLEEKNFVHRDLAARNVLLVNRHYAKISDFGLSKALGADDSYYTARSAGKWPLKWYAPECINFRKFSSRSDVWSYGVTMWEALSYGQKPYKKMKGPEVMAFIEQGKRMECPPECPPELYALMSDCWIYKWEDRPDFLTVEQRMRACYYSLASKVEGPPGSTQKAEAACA
Experimental: Before initiation of kinase reactions, compounds were pre-incubated with ZAP-70. Pre-incubation reactions contained 62.5 mM Mops pH 7.0, 12.5 mM MgCl2, 12.5% glycerol, 3.1 nM ZAP-70, 62.5 nM biotinylated poly(glu,Tyr), 0.1 mg/ml BSA, 6.25% DMSO and […] compound in a total volume of […]. After a 10 minute room temperature incubation, 10 ml of 5 mM ATP was added to start the reaction. Reactions were incubated at room temperature for 30 minutes then terminated by addition of 5 ml 500 mM EDTA. The amount of phosphate transferred to biotinylated poly(glu,tyr) was measured using the Dissociation Enhanced Lanthanide Fluorescence Immuno-assay (DELFIA) from Perkin Elmer according to manufacturers protocol. Briefly, biotinylated […] was captured on streptavidin coated plates, washed twice, then incubated with Europium labeled-anti-phosphotyrosine antibody. Free antibody was removed with six washes, Europium was dissociated from the antibody, and Europium fluorescence was measured at using an excitation wavelength of 340 nm and an emission wavelength of 615 nm.

Row | SMILES | IC50 [µM]
1 | N#Cc1ccc(-c2ccc3nc(NCc4ccccc4N4CCCCC4)cc(C(=O)N4CCC[C@H]4CN4CCCC4)c3c2)cc1 [Compound 235] | > 10
2 | CN(CCc1ccccc1)c1cc(C(=O)N2CCC[C@H]2CN2CCCC2)cc(-c2ccc3c(c2)OCO3)n1 [Compound 368] | > 10
3 | N#Cc1ccc(-c2ccc3nc(N4CCCC4c4ccc(Cl)cc4)cc(C(=O)N4CCC[C@H]4CN4CCCC4)c3c2)cc1 (stereo partly drawn) [Compound 259] | > 10
4 | N#Cc1ccc(-c2ccc3nc(NCC4(c5ccc(Cl)cc5)CC4)cc(C(=O)N4CCC[C@H]4CN4CCCC4)c3c2)cc1 [Compound 260] | > 10
5 | O=C(c1cc(Cc2ccc(N3CCC4(CCNC4)CC3)cc2)nc2ccc(-c3ccc4c(c3)OCO4)cc12)N1CCCC1CN1CCCC1 (stereo not drawn) [Compound 446] | < 1
6 | CN(C)CCN(C)c1cc(C(=O)N2CCC[C@H]2CN2CCCC2)c2cc(-c3ccc4c(c3)OCO4)ccc2n1 [Compound 67] | > 10
7 | O=C(c1cc(Cc2ccc(N3CCNCC3)cc2)nc2ccc(-c3ccc4c(c3)OCO4)cc12)N1CCCC1CN1CCCC1 (stereo not drawn) [Compound 439] | < 1
8 | COc1cccc(CCNc2cc(C(=O)N3CCC[C@H]3CN3CCCC3)c3cc(-c4ccc(C#N)cc4)ccc3n2)c1 [Compound 197] | > 10
9 | N#Cc1ccc(-c2ccc3nc(NCc4c(F)cccc4F)cc(C(=O)N4CCC[C@H]4CN4CCCC4)c3c2)cc1 [Compound 312] | 1 to 10
10 | O=C(c1cc(-c2ccc(Cl)c(Cl)c2)nc2ccc(-c3ccc(Cl)c(Cl)c3)cc12)N1CCC[C@H]1CN1CCCC1 [Compound 97] | 1 to 10
11 | CC(CNC(=O)c1cc(C(=O)N2CCC[C@H]2CN2CCCC2)c2cc(-c3ccc4c(c3)OCO4)ccc2n1)c1ccccc1 (stereo partly drawn) [Compound 142] | 1 to 10
12 | O=C(c1cc(/C=C/c2ccccc2)nc(/C=C/c2ccccc2)c1)N1CCC[C@H]1CN1CCCC1 [Compound 116] | 1 to 10
13 | COc1cccc(CNc2cc(C(=O)N3CCC[C@H]3CN3CCCC3)c3cc(-c4ccc(C#N)cc4)ccc3n2)c1 [Compound 160] | > 10
14 | CC(Nc1cc(C(=O)N2CCC[C@H]2CN2CCCC2)c2cc(-c3ccc(C#N)cc3)ccc2n1)c1ccc2ccccc2c1 (stereo partly drawn) [Compound 208] | > 10
15 | CN(c1cc(C(=O)N2CCC[C@H]2CN2CCCC2)c2cc(-c3ccc4c(c3)OCO4)ccc2n1)C1CCCCC1 [Compound 70] | < 1
16 | O=C(c1cc(Cc2ccc(N3CCN(Cc4ccncc4)CC3)cc2)nc2ccc(-c3ccc4c(c3)OCO4)cc12)N1CCCC1CN1CCCC1 (stereo not drawn) [Compound 443] | < 1
17 | CN(CCc1ccccc1)c1cc(C(=O)N2CCC[C@H]2CN2CCCC2)cc(/C=C/c2ccccc2)n1 [Compound 365] | 1 to 10
18 | N#Cc1ccc(-c2ccc3nc(NCCc4ccc(F)cc4)cc(C(=O)N4CCC[C@H]4CN4CCCC4)c3c2)cc1 [Compound 192] | > 10
19 | O=C(c1cc(CCCc2ccccc2)nc2ccc(-c3ccc4c(c3)OCO4)cc12)N1CCC[C@H]1CN1CCCC1 [Compound 434] | < 1
20 | CS(=O)(=O)c1ccc(CNc2cc(C(=O)N3CCC[C@H]3CN3CCCC3)c3cc(-c4ccc(C#N)cc4)ccc3n2)cc1 [Compound 311] | 1 to 10
21 | N#Cc1ccc(-c2ccc3nc(NCc4cc(F)cc(F)c4)cc(C(=O)N4CCC[C@H]4CN4CCCC4)c3c2)cc1 [Compound 188] | > 10
22 | CN(Cc1ccc(Cl)c(Cl)c1)c1cc(C(=O)N2CCC[C@H]2CN2CCCC2)c2cc(-c3ccc4c(c3)OCO4)ccc2n1 [Compound 77] | < 1
23 | Cc1ccccc1CNc1cc(C(=O)N2CCC[C@H]2CN2CCCC2)c2cc(-c3ccc(C#N)cc3)ccc2n1 [Compound 172] | > 10
24 | N#Cc1ccc(-c2ccc3nc(NCc4ccc(-c5ccccc5)cc4)cc(C(=O)N4CCC[C@H]4CN4CCCC4)c3c2)cc1 [Compound 252] | > 10
25 | N#Cc1ccc(-c2ccc3nc(NNCc4ccccc4)cc(C(=O)N4CCC[C@H]4CN4CCCC4)c3c2)cc1 [Compound 249] | > 10
26 | CN(C)CCCN1CCN(c2ccc(Cc3cc(C(=O)N4CCCC4CN4CCCC4)c4cc(-c5ccc6c(c5)OCO6)ccc4n3)cc2)CC1 (stereo not drawn) [Compound 441] | < 1
27 | O=C(c1cc(Cl)nc(Cl)c1)N1CCC[C@H]1CN1CCCC1 [Compound 113] | > 10

Other lines, results leading:

Row | IC50 [µM] | SMILES
28 | > 10 | O=C(NCc1ccc(C(F)(F)F)cc1)c1cc(NCc2ccc(C(F)(F)F)cc2)nc2ccc(-c3ccc4c(c3)OCO4)cc12 [Compound 111]
29 | < 1 | CN1CCN(c2ccc(Nc3cc(C(=O)N4CCCC4CN4CCCC4)c4cc(-c5ccc6c(c5)OCO6)ccc4n3)cc2)CC1 (stereo not drawn) [Compound 429]
30 | < 1 | O=C(c1cc(NCc2ccc(C(F)(F)F)cc2)nc2ccc(-c3ccc4c(c3)OC(F)(F)C(F)(F)O4)cc12)N1CCC[C@H]1CN1CCCC1 [Compound 125]
31 | > 10 | O=C(c1cc(NCc2ccc(C(F)(F)F)cc2)nc2ccc(-c3ncccn3)cc12)N1CCC[C@H]1CN1CCCC1 [Compound 336]
32 | > 10 | CCCCc1ccc2nc(NCc3ccc(C(F)(F)F)cc3)cc(C(=O)N3CCC[C@H]3CN3CCCC3)c2c1 [Compound 291]
33 | > 10 | O=C(c1cc(NCc2ccc(C(F)(F)F)cc2)nc2ccc(-c3ccc4c(c3)OCO4)cc12)N1CCC[C@H]1CO [Compound 362]
34 | > 10 | Cc1ccc(CNc2cc(C(=O)N3CCC[C@H]3CN3CCCC3)c3cc(-c4ccc(C#N)cc4)ccc3n2)cc1F [Compound 227]
35 | < 1 | CC(CNc1cc(C(=O)N2CCC[C@H]2CN2CCCC2)c2cc(-c3ccc4c(c3)OCO4)ccc2n1)c1ccccc1 (stereo partly drawn) [Compound 54]
36 | > 10 | O=C(c1cc2cc(-c3ccc4c(c3)OCO4)ccc2nc1NCc1ccc(C(F)(F)F)cc1)N1CCCC1CN1CCCC1 (stereo not drawn) [Compound 128]
37 | < 1 | O=C(c1cc(NCc2ccc(C(F)(F)F)cc2)nc2ccc(-c3csc4ccccc34)cc12)N1CCC[C@H]1CN1CCCC1 [Compound 300]
38 | 1 to 10 | C[C@H]1CCN(C(=O)c2cc(NCc3ccc(C(F)(F)F)cc3)nc3ccc(-c4ccc5c(c4)OCO5)cc23)[C@@H]1CN1CCCC1 [Compound 147]
39 | > 10 | N#Cc1ncccc1-c1ccc2nc(NCc3ccc(C(F)(F)F)cc3)cc(C(=O)N3CCC[C@H]3CN3CCCC3)c2c1 [Compound 343]
40 | < 1 | O=C(c1cc(NCc2ccc(C(F)(F)F)cc2)nc2ccc(C#Cc3ccccc3)cc12)N1CCC[C@H]1CN1CCCC1 [Compound 281]
41 | < 1 | O=C(c1cc(Nc2ccc(Cl)cc2)nc2ccc(-c3ccc4c(c3)OCO4)cc12)N1CCC[C@H]1CN1CCCC1 [Compound 52]
42 | 1 to 10 | C[C@@H](O)CNc1cc(C(=O)N2CCC[C@H]2CN2CCCC2)c2cc(-c3ccc4c(c3)OCO4)ccc2n1 [Compound 47]
43 | < 1 | O=C(c1cc(Nc2ccccc2)nc2ccc(-c3ccc4c(c3)OCO4)cc12)N1CCC[C@H]1CN1CCCC1 [Compound 13]
44 | < 1 | O=C(c1cc(Nc2ccc3c(c2)OCO3)nc2ccc(-c3ccc4c(c3)OCO4)cc12)N1CCC[C@H]1CN1CCCC1 [Compound 53]
45 | < 1 | O=C(c1cc(Nc2cccc(Br)c2)nc2ccc(-c3ccc4c(c3)OCO4)cc12)N1CCC[C@H]1CN1CCCC1 [Compound 18]
46 | 1 to 10 | O=C(c1cc(N[C@@H]2CCc3ccccc32)nc2ccc(-c3ccc4c(c3)OCO4)cc12)N1CCC[C@H]1CN1CCCC1 [Compound 42]
47 | > 10 | Cn1ccc2cc(-c3ccc4nc(NCc5ccc(C(F)(F)F)cc5)cc(C(=O)N5CCC[C@H]5CN5CCCC5)c4c3)ccc21 [Compound 421]
48 | < 1 | O=C(c1cc(Nc2ccc3cn[nH]c3c2)nc2ccc(-c3ccc4c(c3)OCO4)cc12)N1CCC[C@H]1CN1CCCC1 [Compound 57]
49 | < 1 | O=C(c1cc(CCCCc2ccc(Cl)cc2)nc2ccc(-c3ccc4c(c3)OCO4)cc12)N1CCC[C@H]1CN1CCCC1 [Compound 407]
50 | > 10 | N#Cc1ccc(-c2ccc3nc(NCc4cccc(F)c4)cc(C(=O)N4CCC[C@H]4CN4CCCC4)c3c2)cc1 [Compound 161]
51 | > 10 | N#Cc1ccc(-c2ccc3nc(NCc4ccc(F)c(F)c4)cc(C(=O)N4CCC[C@H]4CN4CCCC4)c3c2)cc1 [Compound 162]
52 | > 10 | N#Cc1ccc(-c2ccc3nc(NCc4cccc(C(F)(F)F)c4F)cc(C(=O)N4CCC[C@H]4CN4CCCC4)c3c2)cc1 [Compound 237]
53 | > 10 | N=C(NC1CCCC1)[C@@H]1CCCN1C(=O)c1cc(NCc2ccc(C(F)(F)F)cc2)nc2ccc(-c3ccc4c(c3)OCO4)cc12 [Compound 379]
54 | > 10 | N#C[C@@H]1CCCN1C(=O)c1cc(NCc2ccc(C(F)(F)F)cc2)nc2ccc(-c3ccc4c(c3)OCO4)cc12 [Compound 382]
